Source: PubChem BioAssay (NCI)
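Dose response: 5 concentrations. Exposure: 48 h. Format: 96-well plates. Endpoint: linear interpolation; highest concentration if not reached. Here, GI50 denotes the concentration required for 50% inhibition of growth. TGI marks complete inhibition of growth.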

Legend:
Experiment in all cases: NCI tumour cell line growth inhibition, 48 h
SF-268 CNS = test system: SF-268 CNS
HCT-116 colon = test system: HCT-116 colon
BT-549 breast = test system: BT-549 breast
TK-10 renal = test system: TK-10 renal
SF-295 CNS = test system: SF-295 CNS
HCT-15 colon = test system: HCT-15 colon
UACC-257 melanoma = test system: UACC-257 melanoma
DU-145 prostate = test system: DU-145 prostate
SNB-75 CNS = test system: SNB-75 CNS
EKVX NSCLC = test system: EKVX NSCLC
SN12C renal = test system: SN12C renal
T-47D breast = test system: T-47D breast
ACHN renal = test system: ACHN renal
NCI-H23 lung = test system: NCI-H23 lung
HOP-62 NSCLC = test system: HOP-62 NSCLC
A498 renal = test system: A498 renal
UO-31 renal = test system: UO-31 renal
OVCAR-4 ovarian = test system: OVCAR-4 ovarian
NCI-H522 lung = test system: NCI-H522 lung
UACC-62 melanoma = test system: UACC-62 melanoma
NCI/ADR-RES ovarian = test system: NCI/ADR-RES ovarian
LOX IMVI melanoma = test system: LOX IMVI melanoma
RPMI-8226 leukemia = test system: RPMI-8226 leukemia
MDA-MB-231 breast = test system: MDA-MB-231 breast
CAKI-1 renal = test system: CAKI-1 renal
COLO 205 colon = test system: COLO 205 colon
786-0 renal = test system: 786-0 renal
OVCAR-5 ovarian = test system: OVCAR-5 ovarian
HOP-92 NSCLC = test system: HOP-92 NSCLC

With `COc1cc(/C=C/C(=O)c2cc(OC)c(OC)c(OC)c2)ccc1Oc1nc(Nc2ccc(F)cc2)nc(N(C)C)n1` the TGI (SF-268 CNS) was greater than 100 µM, the GI50 (HCT-116 colon) was 1.4 µM and the TGI (HCT-116 colon) was 3.18 µM. For the same compound, the GI50 (BT-549 breast) was 1.56 µM, the TGI (BT-549 breast) was 3.2 µM and the GI50 (TK-10 renal) was 2.53 µM. The TGI (TK-10 renal) was 7.3 µM, the GI50 (SF-295 CNS) was 1.98 µM and the TGI (SF-295 CNS) was 5.49 µM. For the same compound, the GI50 (HCT-15 colon) was 1.18 µM, the TGI (HCT-15 colon) was 2.75 µM and the GI50 (UACC-257 melanoma) was 2.83 µM. The TGI (UACC-257 melanoma) was 12.6 µM, the GI50 (DU-145 prostate) was 3.99 µM and the TGI (DU-145 prostate) was 18.7 µM. The GI50 (SNB-75 CNS) was 2.54 µM, the TGI (SNB-75 CNS) was 21.1 µM and the GI50 (EKVX NSCLC) was 2.15 µM. The TGI (EKVX NSCLC) was 9.12 µM, the GI50 (SN12C renal) was 1.23 µM and the TGI (SN12C renal) was 2.73 µM. The GI50 (T-47D breast) was 1.87 µM, the TGI (T-47D breast) was 56.1 µM and the GI50 (ACHN renal) was 2.3 µM. It also gave a TGI (ACHN renal) of 7.48 µM, a GI50 (NCI-H23 lung) of 1.63 µM and a TGI (NCI-H23 lung) of 3.63 µM. For the same compound, the GI50 (HOP-62 NSCLC) was 1.83 µM, the TGI (HOP-62 NSCLC) was 3.88 µM and the GI50 (A498 renal) was 3.99 µM. It also gave a TGI (A498 renal) of 15.2 µM, a GI50 (UO-31 renal) of 1.12 µM and a TGI (UO-31 renal) of 2.36 µM. The GI50 (OVCAR-4 ovarian) was 2.07 µM, the TGI (OVCAR-4 ovarian) was 10.6 µM and the GI50 (NCI-H522 lung) was 1.47 µM. For the same compound, the TGI (NCI-H522 lung) was 3.24 µM, the GI50 (UACC-62 melanoma) was 1.41 µM and the TGI (UACC-62 melanoma) was 3 µM. The GI50 (NCI/ADR-RES ovarian) was 1.42 µM, the TGI (NCI/ADR-RES ovarian) was 3.39 µM and the GI50 (LOX IMVI melanoma) was 0.478 µM. For the same compound, the TGI (LOX IMVI melanoma) was 1.69 µM, the GI50 (RPMI-8226 leukemia) was 0.751 µM and the TGI (RPMI-8226 leukemia) was 5.21 µM. For the same compound, the GI50 (MDA-MB-231 breast) was 1.48 µM, the TGI (MDA-MB-231 breast) was 3.58 µM and the GI50 (CAKI-1 renal) was 1.98 µM. It also gave a TGI (CAKI-1 renal) of 6.67 µM, a GI50 (COLO 205 colon) of 4.45 µM and a TGI (COLO 205 colon) of 16.8 µM. For the same compound, the GI50 (786-0 renal) was 1.45 µM, the TGI (786-0 renal) was 3.23 µM and the GI50 (OVCAR-5 ovarian) was 1.48 µM. The TGI (OVCAR-5 ovarian) was 3.89 µM, the GI50 (HOP-92 NSCLC) was 1.67 µM and the TGI (HOP-92 NSCLC) was 6.72 µM.
